Data as given in US10195158B2, “Bioactive oil based polyesteramide nanofibers for wound healing applications” (Council of Scientific and Industrial Research, priority 2014, dated 2019).
Values after ≈ are worked out from the molar mass of the structure shown.

Test system: Staphylococcus aureus
Assay: Minimum inhibitory concentration of amoxicillin
Format: cell-based
Conditions: susceptible bacteria

- MIC: 0.05 to 8 µg/mL (≈ 0.137 to 21.9 µM)
Compound: CC1(C)S[C@@H]2[C@H](NC(=O)[C@H](N)c3ccc(O)cc3)C(=O)N2[C@H]1C(=O)O [Amoxicillin]
